According to patent publication US8735414B2 (priority 2009, dated 2014):

Key:
[1] = test system: bicistronic HCV replicon (replicon RNA, GenBank Accession No. AJ242654); test: HCV Replicon Assay; format: cell-based; settings: Hepatitis C virus, 72 h, read-out: Replicon IC50

Row | SMILES | IC50 [1] | melting point
1 | Cc1cc(F)c2c(C#N)c(-c3ccc(S(=O)(=O)NC4(C(F)(F)F)CC4)cn3)n(C3CCC3)c2c1 [compound 629, 6-(3-cyano-1-cyclobutyl-4-fluoro-6-methyl-1H-indol-2-yl)-N-[1-(trifluoromethyl)cyclopropyl]pyridine-3-sulfonamide] | 2000 to 5000 nM | 241 to 246 °C
2 | C[C@H](NS(=O)(=O)c1cnc(-c2c(C#N)c3ccc(CC(F)F)cc3n2C2CCCC2)nc1)C1CC1 [compound 597, 2-[3-cyano-1-cyclopentyl-6-(2,2-difluoroethyl)-1H-indol-2-yl]-N-[(1S)-1-cyclopropylethyl]pyrimidine-5-sulfonamide] | < 500 nM | 181 to 189 °C
3 | N#Cc1c(-c2ccc(S(=O)(=O)NC(CF)CF)cn2)n(C2CCCCC2)c2cc(Cl)ccc12 [compound 89, 6-(6-chloro-3-cyano-1-cyclohexyl-1H-indol-2-yl)-N-(1,3-difluoropropan-2-yl)pyridine-3-sulfonamide] | < 500 nM | 203 to 207 °C
4 | Cc1ccc2c(c1)c(C#N)c(-c1ccc(S(=O)(=O)NC(C)(C)C(F)(F)F)cn1)n2C1CCCC1 [compound 607, 6-(3-cyano-1-cyclopentyl-5-methyl-1H-indol-2-yl)-N-(1,1,1-trifluoro-2-methylpropan-2-yl)pyridine-3-sulfonamide] | < 500 nM | 176 to 181 °C
5 | C[C@H](NS(=O)(=O)c1cnc(-c2c(C#N)c3ccc(Cl)cc3n2C2CCCC2)nc1)C(F)(F)F [compound 417, 2-(6-chloro-3-cyano-1-cyclopentyl-1H-indol-2-yl)-N-[(2S)-1,1,1-trifluoropropan-2-yl]pyrimidine-5-sulfonamide] | 500 to 2000 nM | 220 to 224 °C
6 | Cc1c(F)cc2c(C#N)c(-c3ccc(S(=O)(=O)NC4(C(F)(F)F)CC4)cn3)n(C3CCC3)c2c1F [compound 667, 6-(3-cyano-1-cyclobutyl-5,7-difluoro-6-methyl-1H-indol-2-yl)-N-[1-(trifluoromethyl)cyclopropyl]pyridine-3-sulfonamide] | < 500 nM | 235 to 241 °C
7 | Cc1cc2c(cc1F)c(C#N)c(-c1ccc(S(=O)(=O)N[C@@H](C)C(F)(F)F)cn1)n2-c1cccc(F)n1 [compound 815, 6-[3-cyano-5-fluoro-1-(6-fluoropyridin-2-yl)-6-methyl-1H-indol-2-yl]-N-[(2S)-1,1,1-trifluoropropan-2-yl]pyridine-3-sulfonamide] | < 500 nM | 210 to 212 °C
8 | Cc1ccc2c(C#N)c(-c3ncc(S(=O)(=O)NC(C)C)cn3)n(C3CCCCC3)c2c1 [compound 98, 2-(3-cyano-1-cyclohexyl-6-methyl-1H-indol-2-yl)-N-(propan-2-yl)pyrimidine-5-sulfonamide] | < 500 nM | 196 to 201 °C
9 | CC(C)NS(=O)(=O)c1cnc(-c2c(C#N)c3ccc(C(C)C)cc3n2C2CCC2)nc1 [compound 185, 2-[3-cyano-1-cyclobutyl-6-(propan-2-yl)-1H-indol-2-yl]-N-(propan-2-yl)pyrimidine-5-sulfonamide] | < 500 nM | 220 to 222 °C
10 | C[C@H](NS(=O)(=O)c1ccc(-c2c(C#N)c3cc(Br)c(O)cc3n2C2CCC2)nc1)C(F)(F)F [compound 684, 6-(5-bromo-3-cyano-1-cyclobutyl-6-hydroxy-1H-indol-2-yl)-N-[(2S)-1,1,1-trifluoropropan-2-yl]pyridine-3-sulfonamide] | 500 to 2000 nM | 223 to 224 °C
11 | CC(C)(NS(=O)(=O)c1ccc(-c2c(C#N)c3cc(F)c(C4CC4)cc3n2C2CCCC2)nc1)C(F)(F)F [compound 831, 6-(3-cyano-1-cyclopentyl-6-cyclopropyl-5-fluoro-1H-indol-2-yl)-N-(1,1,1-trifluoro-2-methylpropan-2-yl)pyridine-3-sulfonamide] | < 500 nM | 183 to 185 °C
12 | C[C@H](NS(=O)(=O)c1cnc(-c2c(C#N)c3ccc(F)cc3n2C2CCC2)nc1)C(F)(F)F [compound 494, 2-(3-cyano-1-cyclobutyl-6-fluoro-1H-indol-2-yl)-N-[(2S)-1,1,1-trifluoropropan-2-yl]pyrimidine-5-sulfonamide] | 2000 to 5000 nM | 223 to 225 °C
13 | Cc1cc2c(cc1F)c(C#N)c(-c1ccc(S(=O)(=O)N[C@@H](C)C(F)(F)F)cn1)n2-c1ccc([N+](=O)[O-])cn1 [compound 744, 6-[3-cyano-5-fluoro-6-methyl-1-(5-nitropyridin-2-yl)-1H-indol-2-yl]-N-[(2S)-1,1,1-trifluoropropan-2-yl]pyridine-3-sulfonamide] | < 500 nM | 260 to 263 °C
14 | Cc1cc2c(cc1Cl)c(C#N)c(-c1ccc(S(=O)(=O)N[C@H](C)C(F)(F)F)cn1)n2C1CCC1 [compound 445, 6-(5-chloro-3-cyano-1-cyclobutyl-6-methyl-1H-indol-2-yl)-N-[(2R)-1,1,1-trifluoropropan-2-yl]pyridine-3-sulfonamide] | < 500 nM | 213 to 215 °C
15 | CC(C)NS(=O)(=O)c1cnc(-c2c(C(N)=O)c3ccc(OC(F)(F)F)cc3n2C2CCCC2)nc1 [compound 782, 1-cyclopentyl-2-[5-(propan-2-ylsulfamoyl)pyrimidin-2-yl]-6-(trifluoromethoxy)-1H-indole-3-carboxamide] | < 500 nM | 238 to 241 °C
16 | CCc1cc2c(cc1F)c(C#N)c(-c1ccc(S(=O)(=O)N[C@@H](C)C(F)(F)F)cn1)n2-c1cccc(C(F)(F)F)c1 [compound 1011, 6-{3-cyano-6-ethyl-5-fluoro-1-[3-(trifluoromethyl)phenyl]-1H-indol-2-yl}-N-[(2S)-1,1,1-trifluoropropan-2-yl]pyridine-3-sulfonamide] | 500 to 2000 nM | 240 to 245 °C
17 | N#Cc1c(-c2ccc(S(=O)(=O)NC(CF)CF)cn2)n(-c2ccccn2)c2cc(C3CC3)ccc12 [compound 501, 6-[3-cyano-6-cyclopropyl-1-(pyridin-2-yl)-1H-indol-2-yl]-N-(1,3-difluoropropan-2-yl)pyridine-3-sulfonamide] | < 500 nM | 210 to 213 °C
18 | CC(C)(C)NS(=O)(=O)c1ccc(-c2c(C(N)=O)c3cc(F)c(OC(F)F)cc3n2C2CCC2)nc1 [compound 723, 2-[5-(tert-butylsulfamoyl)pyridin-2-yl]-1-cyclobutyl-6-(difluoromethoxy)-5-fluoro-1H-indole-3-carboxamide] | < 500 nM | 158 to 160 °C
19 | CC(C)NS(=O)(=O)c1cnc(-c2c(C#N)c3cc(F)ccc3n2C2CCCCC2)nc1 [compound 526, 2-(3-cyano-1-cyclohexyl-5-fluoro-1H-indol-2-yl)-N-(propan-2-yl)pyrimidine-5-sulfonamide] | < 500 nM | 223 to 225 °C
20 | C[C@H](NS(=O)(=O)c1ccc(-c2c(C#N)c3ccc(C#N)cc3n2CC2CC2)nc1)C(F)(F)F [compound 349, 6-[3,6-dicyano-1-(cyclopropylmethyl)-1H-indol-2-yl]-N-[(2S)-1,1,1-trifluoropropan-2-yl]pyridine-3-sulfonamide] | 500 to 2000 nM | 187 to 188 °C
21 | CCc1cc2c(cc1F)c(C#N)c(-c1ccc(S(=O)(=O)N[C@@H](C)C(F)(F)F)cn1)n2-c1ccnc(C)n1 [compound 943, 6-[3-cyano-6-ethyl-5-fluoro-1-(2-methylpyrimidin-4-yl)-1H-indol-2-yl]-N-[(2S)-1,1,1-trifluoropropan-2-yl]pyridine-3-sulfonamide] | 500 to 2000 nM | 138 to 146 °C
22 | CCc1cc2c(cc1F)c(C(N)=O)c(-c1ccc(NS(=O)(=O)C(C)(C)C)cn1)n2C1CCCCC1 [compound 999, 2-{5-[(tert-butylsulfonyl)amino]pyridin-2-yl}-1-cyclohexyl-6-ethyl-5-fluoro-1H-indole-3-carboxamide] | < 500 nM | 264 to 265 °C
23 | Cc1ccc(-n2c(-c3ccc(S(=O)(=O)N[C@@H](C)C(F)(F)F)cn3)c(C#N)c3cc(F)c(C)cc32)s1 [compound 1031, 6-[3-cyano-5-fluoro-6-methyl-1-(5-methylthiophen-2-yl)-1H-indol-2-yl]-N-[(2S)-1,1,1-trifluoropropan-2-yl]pyridine-3-sulfonamide] | < 500 nM | 246.8 to 249.4 °C
24 | N#Cc1c(-c2ccc(S(=O)(=O)NC(CF)CF)cn2)n(C2CCCC2)c2cc(F)ccc12 [compound 307, 6-(3-cyano-1-cyclopentyl-6-fluoro-1H-indol-2-yl)-N-(1,3-difluoropropan-2-yl)pyridine-3-sulfonamide] | < 500 nM | 166 to 168 °C
25 | C[C@H](NS(=O)(=O)c1ccc(-c2c(C(N)=O)c3cc(Cl)ccc3n2C2CCC2)nc1)C(F)(F)F [compound 996, 5-chloro-1-cyclobutyl-2-(5-{[(2S)-1,1,1-trifluoropropan-2-yl]sulfamoyl}pyridin-2-yl)-1H-indole-3-carboxamide] | < 500 nM | 244 to 245 °C
26 | N#Cc1c(-c2ncc(S(=O)(=O)NC(CF)CF)cn2)n(C2CCCCC2)c2cc(OC(F)F)ccc12 [compound 179, 2-[3-cyano-1-cyclohexyl-6-(difluoromethoxy)-1H-indol-2-yl]-N-(1,3-difluoropropan-2-yl)pyrimidine-5-sulfonamide] | < 500 nM | 174 to 176 °C
27 | C[C@H](NS(=O)(=O)c1cnc(-c2c(C#N)c3ccc(F)cc3n2CC2CC2)nc1)C1CC1 [compound 498, 2-[3-cyano-1-(cyclopropylmethyl)-6-fluoro-1H-indol-2-yl]-N-[(1S)-1-cyclopropylethyl]pyrimidine-5-sulfonamide] | 500 to 2000 nM | 198 to 199 °C
28 | CC(C)n1c(-c2ncc(S(=O)(=O)N[C@@H](C)C(F)(F)F)cn2)c(C#N)c2cc(F)ccc21 [compound 546, 2-[3-cyano-5-fluoro-1-(propan-2-yl)-1H-indol-2-yl]-N-[(2S)-1,1,1-trifluoropropan-2-yl]pyrimidine-5-sulfonamide] | 500 to 2000 nM | 172 to 176 °C
